# Measured values from patent US20110003314A1, “Hapten, Immunogens and Derivatives of Ascomycin Useful for Preparation of Antibodies and Immunoassays” (MICROGENICS CORPORATION, priority 2004, published 2011).
# Assays:
# [1] = system: monoclonal antibody produced by hybridoma line 28E2; test: CEDIA tacrolimus assay specificity (cross-reactivity); assay type: binding, mice; conditions: for Concentration Measured: added to whole blood, concentration tested 20 ng/ml
# Protocol: Antibodies obtained using any of the aforementioned techniques are screened or purified not only for their ability to bind specifically with tacrolimus, but also for low cross-reactivity with potential interfering substances. “Cross reactivity” is determined in a quantitative immunoassay by establishing a standard curve using known dilutions of tacrolimus or ascomycin. […] The percent (%) cross-reactivity is the measured concentration divided by the tested concentration multiplied by 100.
# If tacrolimus is present in the sample, it binds to the antibody, leaving the ED portion of the competing conjugate free to restore enzyme activity upon complementation reaction with enzyme acceptor (EA) fragments in the assay reaction mixture. The active enzyme is then capable of producing a quantifiable reaction product when exposed to appropriate substrate. If drug is not present in the sample, the antibody binds to the ED-drug conjugate inhibiting association of the ED fragments with the EA fragments, thus inhibiting restoration of enzyme activity. The amount of reaction product and resultant absorbance change are proportional to the amount of drug in the sample.
# Each of four naturally occurring metabolites of tacrolimus, at a concentration of approximately 20 ng/ml, was added separately to a whole blood specimen. […] The cross reactivity of the metabolites was calculated as:
# (measured concentration)/20ng/ml×100%
# In another experiment, commonly co-administered immunosuppressants were added to whole blood and tested for cross-reactivity.
# [2] = system: antibodies that bind rapamycin; conditions: taught by Sedrani et al.; cited from earlier work
# [3] = tacrolimus metabolites, 20 ng/ml in whole blood, (measured concentration)/20 ng/ml x 100%
# [4] = other immunosuppressants in whole blood, tested concentration 100,000 ng/ml
SMILES,Concentration Measured [1],"% Cross-Reactivity [1, 3]","% Cross-Reactivity [1, 4]",cross-reactivity of rapamycin-binding antibodies [2]
"C=CCC1C=C(C)CC(C)CC(OC)C2OC(O)(C(=O)C(=O)N3CCCCC3C(=O)OC(C(C)=CC3CCC(O)C(O)C3)C(C)C(O)CC1=O)C(C)CC2O (stereo not drawn) [13,31-O-didemethyl-T, 13,31-O-didemethyl tacrolimus]",0.57 ng/mL,2.9%,,
"C=CCC1C=C(C)CC(C)CC(OC)C2OC(O)(C(=O)C(=O)N3CCCCC3C(=O)OC(C(C)=CC3CCC(O)C(OC)C3)C(C)C(O)CC1=O)C(C)CC2O (stereo not drawn) [13-O-demethyl-T, 13-O-demethyl tacrolimus]",7.5 ng/mL,37.7%,,
"C=CCC1C=C(C)CC(C)CC(O)C2OC(O)(C(=O)C(=O)N3CCCCC3C(=O)OC(C(C)=CC3CCC(O)C(OC)C3)C(C)C(O)CC1=O)C(C)CC2OC (stereo not drawn) [15-O-demethyl-T, 15-O-demethyl tacrolimus]",0.95 ng/mL,4.7%,,
"C=CCC1C=C(C)CC(C)CC(OC)C2OC(O)(C(=O)C(=O)N3CCCCC3C(=O)OC(C(C)=CC3CCC(O)C(O)C3)C(C)C(O)CC1=O)C(C)CC2OC (stereo not drawn) [31-O-demethyl-T, 31-O-demethyl tacrolimus]",0.98 ng/mL,4.9%,,
C[C@]12CCC(=O)C=C1CC[C@@H]1[C@@H]2[C@@H](O)C[C@@]2(C)[C@H]1CC[C@]2(O)C(=O)CO [Hydrocorticol],,,0.0%,
COc1c(C)c2c(c(O)c1C/C=C(\C)CCC(=O)O)C(=O)OC2 [Mycophenolic acid],,,0.0%,
C[C@]12C=CC(=O)C=C1CC[C@@H]1[C@@H]2[C@@H](O)C[C@@]2(C)[C@H]1CC[C@]2(O)C(=O)CO [Prednisolone],,,0.0%,
C[C@]12C=CC(=O)C=C1CC[C@@H]1[C@@H]2C(=O)C[C@@]2(C)[C@H]1CC[C@]2(O)C(=O)CO [Prednisone],,,0.0%,
C=CC[C@@H]1/C=C(\C)C[C@H](C)C[C@H](OC)[C@H]2O[C@@](O)(C(=O)C(=O)N3CCCC[C@H]3C(=O)O[C@H](/C(C)=C/[C@@H]3CC[C@@H](O)[C@H](OC)C3)[C@H](C)[C@@H](O)CC1=O)[C@H](C)C[C@@H]2OC [tacrolimus],20.0 ng/mL,100.0%,,greater than 50%
